Six molecules from ChEMBL document CHEMBL2073955, “Proton/peptide cotransporter (PEPT 2) from human kidney: functional characterization and chromosomal localization” (Biochim Biophys Acta, 1995) can be followed below.

Where a SMILES comes first, the peptide text is derived from it.

What all share (assay type): functional, cell-based
Data set [1] deals with T1, Solute carrier family 15 member 1 (Homo sapiens, UniProt P46059).
T1 sequence (P46059 whole entry): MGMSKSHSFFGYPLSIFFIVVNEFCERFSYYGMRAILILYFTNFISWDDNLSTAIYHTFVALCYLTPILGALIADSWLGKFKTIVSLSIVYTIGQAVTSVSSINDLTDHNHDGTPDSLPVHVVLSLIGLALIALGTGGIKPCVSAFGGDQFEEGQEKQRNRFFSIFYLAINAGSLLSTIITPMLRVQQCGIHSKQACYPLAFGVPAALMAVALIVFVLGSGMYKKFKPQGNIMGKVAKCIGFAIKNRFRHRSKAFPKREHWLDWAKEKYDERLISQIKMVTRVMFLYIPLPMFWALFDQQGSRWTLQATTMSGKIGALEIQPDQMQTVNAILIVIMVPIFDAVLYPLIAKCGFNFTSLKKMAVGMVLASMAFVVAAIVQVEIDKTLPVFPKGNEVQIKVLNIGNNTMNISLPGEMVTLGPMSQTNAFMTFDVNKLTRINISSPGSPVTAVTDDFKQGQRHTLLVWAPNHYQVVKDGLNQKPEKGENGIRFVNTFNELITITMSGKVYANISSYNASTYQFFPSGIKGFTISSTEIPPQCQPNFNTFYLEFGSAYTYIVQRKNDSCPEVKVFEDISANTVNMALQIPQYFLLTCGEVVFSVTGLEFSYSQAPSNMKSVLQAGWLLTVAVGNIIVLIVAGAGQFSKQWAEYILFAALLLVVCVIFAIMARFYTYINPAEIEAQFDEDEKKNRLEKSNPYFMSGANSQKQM
As to the kind of experiment: TP_TRANSPORTER: inhibition of Gly-Sar uptake in PEPT1-expressing HeLa cells.

Data set [2] deals with T2, Solute carrier family 15 member 2 (Homo sapiens, UniProt Q16348).
T2 sequence (Q16348 whole entry): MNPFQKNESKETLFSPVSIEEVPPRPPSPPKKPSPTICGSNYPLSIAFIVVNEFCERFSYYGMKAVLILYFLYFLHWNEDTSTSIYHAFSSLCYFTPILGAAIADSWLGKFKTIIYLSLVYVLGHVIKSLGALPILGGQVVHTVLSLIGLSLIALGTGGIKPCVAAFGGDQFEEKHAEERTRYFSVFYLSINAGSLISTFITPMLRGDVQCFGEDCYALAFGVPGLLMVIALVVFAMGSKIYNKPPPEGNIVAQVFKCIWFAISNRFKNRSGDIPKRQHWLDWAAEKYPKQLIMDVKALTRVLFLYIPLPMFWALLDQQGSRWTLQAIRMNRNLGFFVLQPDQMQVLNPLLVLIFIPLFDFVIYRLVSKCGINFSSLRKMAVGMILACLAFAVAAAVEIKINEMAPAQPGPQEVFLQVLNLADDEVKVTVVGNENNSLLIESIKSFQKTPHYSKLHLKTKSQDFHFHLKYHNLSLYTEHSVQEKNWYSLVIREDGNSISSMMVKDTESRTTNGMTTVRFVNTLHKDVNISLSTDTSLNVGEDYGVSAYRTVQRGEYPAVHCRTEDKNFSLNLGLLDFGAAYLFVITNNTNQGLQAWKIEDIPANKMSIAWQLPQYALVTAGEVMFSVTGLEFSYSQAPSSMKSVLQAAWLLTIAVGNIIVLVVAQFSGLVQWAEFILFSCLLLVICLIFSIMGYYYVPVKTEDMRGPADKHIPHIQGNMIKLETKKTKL
As to the kind of experiment: TP_TRANSPORTER: inhibition of Gly-Sar uptake in PEPT2-expressing HeLa cells.

Substrate in data set [3]: CN(CC(=O)O)C(=O)CN
As to the kind of experiment: TP_TRANSPORTER: uptake in PEPT2-expressing HeLa cells.

Regarding `C[C@H](N)C(=O)N[C@@H](C)C(=O)O` (H-Ala-Ala-OH), the inhibitory constant (Ki) was 78 µM in data set [1] and 6 µM in data set [2]. As to `C[C@H](N)C(=O)N[C@@H](CCCCN)C(=O)O` (H-Ala-Lys-OH), the values for the Ki in data set [1] and in data set [2] were 117 µM and 11 µM, respectively. `C[C@H](N)C(=O)N[C@@H](CC(=O)O)C(=O)O` (H-Ala-Asp-OH): the figures for the inhibitory constant (Ki) in data set [1] and in data set [2] were 78 µM and 18 µM, respectively. For the molecule `NCCCC[C@H](NC(=O)[C@@H](N)CC(=O)O)C(=O)O` (H-Asp-Lys-OH), the Ki is 108 µM in data set [1] and 8 µM in data set [2]. In the case of `C[C@H](NC(=O)[C@@H](N)CCCCN)C(=O)O` (H-Lys-Ala-OH), the Ki is 419 µM in data set [1] and 23 µM in data set [2].

B1: Solute carrier family 15 member 2 (Homo sapiens), Q16348 (protein)
chain: T2 sequence (Q16348 whole entry)
B1: the Km in data set [3] worked out at 74 µM.

For orientation: Ki means the equilibrium dissociation constant of an inhibitor or competing ligand from its target. Low readings indicate higher affinity, high ones lower affinity. Usually Km stands for the concentration of substrate that gives half-maximal velocity.
